# Like-named read-outs stand apart in the source and are kept apart here.
# What was measured:
# [1] = test system: T. cruzi (Y strain) in male Swiss mice; assay: Mouse model of acute T. cruzi infection (Y strain); format: in vivo; details: for parasite DNA amplification in blood (qPCR): 77 dpi, heart puncture, derivatives 25 mg/kg/day, Bz 100 mg/kg/day, 5 days oral, limit of detection 0.47 eq par/mL; for reduction of parasitemia: gavage once a day, 5 consecutive days, 25 mg/kg/day, from parasitemia onset, p < 0.05; for protection against loss of weight induced by acute infection: 25 mg/kg/day oral, 5 days
# Protocol: Thus, a proof-of-concept study was performed in T. cruzi-infected mice. The infected animals were treated (gavage, once a day) for 5 consecutive days with the derivatives (25 mg/kg/day) or Bz (100 mg/kg/day), starting drug administration at the parasitemia onset, usually on day 5 dpi, following doses and protocols already established for the other nucleoside derivatives.
# The synthesis and characterization of FH11706, FH10714 [46] and FH8513 [19] were previously reported. Benznidazole (Bz) was purchased from Laboratório Farmacêutico do Estado de Pernambuco (Brazil). […] For in vivo assays, Bz was formulated using 3% Tween 80 in distilled water and the nucleoside analogues in 10% (v/v) EtOH, with 1.1 mM aqueous citrate buffer pH 3.2 and dosed according to animal body weight.
# Male Swiss Webster mice (18−20 g; 4−5 weeks of age) were obtained from the Institute of Sciences and Technologies in Biomodels (ICTB-FIOCRUZ), housed with a maximum of 5 animals per cage and kept in a specific pathogen-free (SPF) room at 20−24 °C under a 12 h light and 12 h dark cycle. All animals received sterilized water and food ad libitum. The animals were acclimatized for 7 days before the experiments. To detect possible toxic events, nucleoside analogues and Bz were orally given to non-infected Swiss male mice (n = 2) for 5 consecutive days, with a fixed dose of 50 mg/kg (0.1 mL). On day 5, all animals were euthanized to inspect toxic and subtoxic symptoms. For a proof-of-concept study, animals were infected by i.p. administration of 10^4 bloodstream trypomastigotes (Y strain), and drug administration started at the onset of parasitemia (6 dpi), only using mice with detectable parasitemia. Control mice groups were age-matched and housed under identical conditions. The following experimental groups were used (3 mice per group): untreated (infected vehicle-treated control) and treated (infected and treated with derivatives or with benznidazole). The derivatives and Bz were given orally (gavage) for five consecutive days at 25 mg/kg and 100 mg/kg, respectively, once a day. Parasitemia levels in T. cruzi assays were individually checked by light microscopic counting of parasites in 5 μL of blood, as described. For blood qPCR analysis, 500 µL of blood was diluted in a 1:2 volume of guanidine solution and heated for 60 s in boiling water, followed by DNA purification using High Pure PCR Template Preparation Kit (Roche Applied Science) and quantitative real-time multiplex PCR assays. TaqMan probes were used for quantification of both T. cruzi satellite nuclear DNA and internal amplification control (IAC), as described in Duffy et al. (2013), using the following primer and prober sets: Cruzi1 5′-[…]-3′ (750 nM), Cruzi2 5′-[…]-3′ (750 nM), Cruzi3 FAM-5′-CACACACTGGACACCAA-3′-NFQ-MGB (50 nM), IAC Fw 5′-[…]-3′ (100 nM), IAC Rv 5′-[…]-3′ (100 nM) and IAC Tq 5′-VIC-AGCATCTGTTCTTGAAGGT-NFQ-MGB-3′ (50 nM). The cycling conditions were a first step of 10 min at 95 °C, followed by 40 cycles at 95 °C for 15 s and 58 °C for 1 min. The amplifications were carried out in a Quantstudio 3 real-time PCR system (Applied Biosystems), with the threshold set at 0.02 in all runs. Standard curves were constructed for absolute quantification through the serial dilution of total DNA, ranging from 10^5 parasite equivalent to 1 parasite equivalent per mL of blood, obtained with a negative blood sample in guanidine-EDTA. Parasite load was expressed as equivalent of parasite DNA per mL of blood.
# [2] = test system: promastigotes of Cas9^ΔNT1; assay: Resazurin-based assay on Cas9^ΔNT1 promastigotes; format: cell-based, Leishmania mexicana
# Protocol: Bloodstream trypomastigotes of the Y strain (DTU II) were obtained by cardiac puncture of infected Swiss Webster mice on the parasitemia peak to perform drug sensitivity assays. Trypomastigote forms of the Tulahuen-β gal strain were collected from the supernatant of previously infected L929 cell cultures (host/parasite cell ratio 10:1). The intracellular forms T. cruzi were studied by the infection of L929 and H9C2 (2D and 3D) cell cultures infected for 48 and 24 h with trypomastigotes of Tulahuen-β gal and Y strains, respectively. The Leishmania mexicana-Cas9 T7 strain (LmexCas9) was derived from L. mexicana WT promastigotes by expression of the Streptococcus pyogenes Cas9 nuclease gene ‘Cas9′ and maintained on 32 μg/mL hygromycin [51]. This strain and the derived strains Cas9^ΔNT1 and Cas9^ΔNT1+TcrNT2 were cultured in HOMEM medium supplemented with 10% of FBS and 1% Penicillin-Streptomycin antibiotic in unvented flasks at 25 °C [52]. The Cas9^ΔNT1 strain is identical to Cas9 except that the LmexNT1.1/NT1.2 locus encoding the L. mexicana adenosine/ pyrimidine transporters was excised using Cas9 [17, 40]. Cas9^ΔNT1+TcrNT2 is the further modification of that strain by the expression of the T. cruzi nucleoside transporter 2 (TcrNT2) gene in it, using the vector pNUS-HcN [53]. Appropriate antibiotics were added for the selection and maintenance of transfectants.
# The EC50 values for nucleoside analogues against Leishmania mexicana promastigotes of the Cas9, Cas9^ΔNT1 and Cas9^ΔNT1+TcrNT2 strains used a resazurin-based assay, as described. Briefly, the assays were performed in standard HOMEM medium and culture conditions, in white opaque 96-well plates. For each test compound (stored as a 40 mM stock solution in 100% DMSO at −20 °C), a doubling dilution was performed over 2 rows of the plate, keeping the last well free as no-drug control with HOMEM only (23 doubling dilutions; highest concentration 100 µM). To each well, 100 µL of HOMEM containing 2 × 10^5 cells of the appropriate L. mexicana line was added, and the plates incubated for 72 h at 25 °C, followed by the addition of 20 µL of resazurin solution and further incubation for 48 h. Fluorescence was read on a FLUOstar OPTIMA plate reader (BMG Labtech, Germany), at an excitation wavelength of 544 nm and an emission wavelength of 620 nm. The EC50 values were determined by the GraphPad Prism 8.0 software using an equation for a sigmoid curve with variable slope. Pentamidine was used as positive control, and every experiment was independently performed at least 3 times independently.
# [3] = Leishmania mexicana, read-out: Cas9^ΔNT1 EC50 (μM), promastigotes, resazurin-based assay, highest concentration 100 µM
Compound,parasite DNA amplification in blood (qPCR) [1] [eq par/mL],reduction of parasitemia [1] [%],"sterile (parasitological) cure in mice ([1]; oral once a day for 5 days (derivatives 25 mg/kg), blood qPCR)","EC50 [2, 3] [µM]",protection against loss of weight induced by acute infection [1],"EC50 ([2]; read-out: Cas9^ΔNT1 EC50, promastigotes, resazurin-based assay, highest concentration 100 µM) [µM]"
"Nc1ncnc2c1c(-c1ccc(Cl)c(F)c1)cn2[C@@H]1O[C@H](CO)[C@@H](O)[C@H]1O [FH10714, 7-(3-fluoro,4-chlorophenyl)tubercidin]",0.046 ± 0.038,99.58,incapable to promote a parasitological cure,> 100,–,–
"Nc1ncnc2c1c(-c1ccc(F)c(F)c1)cn2[C@@H]1O[C@H](CO)[C@@H](O)[C@H]1O [FH11706, 7-(3,4-Difluorophenyl)tubercidin]",0.038 ± 0.016,98.4,–,> 100,strongly protected,–
"O=C(Cn1ccnc1[N+](=O)[O-])NCc1ccccc1 [Bz, Benznidazole, reference compound]",0.187 ± 0.082,–,–,–,–,–
"Nc1ncnc2c1c(-c1ccc(Cl)c(Cl)c1)cn2[C@@H]1O[C@H](CO)C[C@H]1O [FH8513, 7-(3,4-dichlorophenyl)-3′-deoxytubercidin]",0.287 ± 0.017,99.48,–,~100,strongly protected,100.5 ± 0.9

# Source: article PMC9695592, “Phenotypic Evaluation of Nucleoside Analogues against Trypanosoma cruzi Infection: In Vitro and In Vivo Approaches” (Molecules, 2022)
